The results in this text go back to patent publication US10131679B2, “Substituted dihydropyrrolopyrazole compound” (UBE INDUSTRIES, LTD., priority 2014, dated 2018).

Assay [1] deals with human large intestine cancer cell line (HCT-116). In words: Human large intestine cancer (HCT-116) cell growth inhibition test. The class given is cell-based. Conditions: 72 h, HCT-116, culture for 3 days, sulforhodamine B absorbance. The essentials:
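HCT-116 cells seeded at 1.0×10^3 cells/well in McCoy's 5a with 10% FBS, then exposed to compound (0.1% DMSO final) for 3 days. Growth measured by sulforhodamine B absorbance; IC50 derived from concentration-inhibition data.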

Assay [2] deals with T1, CDK7 (Homo sapiens, UniProt P50613).
T1 construct: purchased Carna Biosciences, Inc. 04-108
Kind of assay: CDK7 enzyme inhibition test. The class given is biochemical. The note with it: Ki=IC50/(1+S/Km); 33P bound to MBP, [γ-33P]ATP, 30° C. for 20 minutes; read-out: Ki value of CDK7 inhibitory activity. In short, it runs like this:
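Recombinant CDK7 with MBP substrate and [γ-33P]ATP (500 μM solution, diluted into the mix) in HEPES pH 7.4/DTT/Triton X-100/MgCl2, 20 min at 30 °C. TCA-precipitated 33P-MBP counted by scintillation; IC50 from inhibition, Ki = IC50/(1+S/Km).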

T1 sequence (P50613 whole entry): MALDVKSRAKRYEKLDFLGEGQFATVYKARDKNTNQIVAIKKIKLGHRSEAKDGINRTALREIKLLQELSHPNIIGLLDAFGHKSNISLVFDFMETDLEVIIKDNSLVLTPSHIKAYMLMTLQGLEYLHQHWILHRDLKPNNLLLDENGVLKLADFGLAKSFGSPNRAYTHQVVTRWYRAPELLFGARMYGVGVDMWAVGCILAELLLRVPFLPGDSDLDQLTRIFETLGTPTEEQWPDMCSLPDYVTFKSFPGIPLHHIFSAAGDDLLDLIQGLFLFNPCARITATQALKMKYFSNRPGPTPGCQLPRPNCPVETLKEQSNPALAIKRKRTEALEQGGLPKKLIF
T1 sequence (P51946 whole entry partner): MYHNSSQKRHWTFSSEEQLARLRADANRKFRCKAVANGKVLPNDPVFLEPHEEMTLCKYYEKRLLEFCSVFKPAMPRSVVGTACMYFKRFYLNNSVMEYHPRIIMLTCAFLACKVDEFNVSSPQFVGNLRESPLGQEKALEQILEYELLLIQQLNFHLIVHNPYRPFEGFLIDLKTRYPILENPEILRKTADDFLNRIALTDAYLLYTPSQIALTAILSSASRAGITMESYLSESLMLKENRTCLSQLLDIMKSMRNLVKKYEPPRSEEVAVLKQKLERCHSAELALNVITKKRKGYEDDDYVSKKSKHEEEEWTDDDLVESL
T1 sequence (P51948 whole entry partner): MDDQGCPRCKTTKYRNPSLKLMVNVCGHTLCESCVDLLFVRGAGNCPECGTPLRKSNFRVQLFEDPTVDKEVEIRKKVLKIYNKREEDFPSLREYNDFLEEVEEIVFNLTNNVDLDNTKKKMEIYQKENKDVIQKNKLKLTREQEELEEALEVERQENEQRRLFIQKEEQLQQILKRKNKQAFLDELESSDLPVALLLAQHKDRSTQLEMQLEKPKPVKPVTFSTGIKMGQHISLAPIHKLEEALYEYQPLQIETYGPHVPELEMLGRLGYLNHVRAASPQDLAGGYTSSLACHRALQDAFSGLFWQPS

The term IC50 denotes the concentration needed to halve the response being measured. Read a low IC50 as inhibition by little substance. In assay [1], `CC(C)(CO)C(NC(=O)N1Cc2c(NC(=O)C3([Si](C)(C)C)CCC3)n[nH]c2C1(C)C)c1ccc(F)cc1` (centres unmarked) [IV-946, N-[1-(4-Fluorophenyl)-3-hydroxy-2,2-dimethylpropyl]-6,6-dimethyl-3-[1-(trimethylsilyl)cyclobutanecarboxamido]-4,6-dihydropyrrolo[3,4-c]pyrazole-5(1H)-carboxamide] came in with an IC50 of no more than 500 nM.

Consider `CC(C)(CO)C(NC(=O)N1Cc2c(NC(=O)C3([Si](C)(C)C)CCC3)n[nH]c2C1(C)C)c1cccc(F)c1` (centres unmarked) [IV-918, N-[1-(3-Fluorophenyl)-3-hydroxy-2,2-dimethylpropyl]-6,6-dimethyl-3-[1-(trimethylsilyl)cyclobutanecarboxamido]-4,6-dihydropyrrolo[3,4-c]pyrazole-5(1H)-carboxamide], for which the IC50 in assay [1] was no more than 500 nM.

As usually defined, the Ki is the dissociation constant of the complex between target and ligand, obtained from inhibition or displacement. Regarding `CC(C)(CO)C(NC(=O)N1Cc2c(NC(=O)C3([Si](C)(C)C)CCC3)n[nH]c2C1(C)C)c1ccccc1` (single isomer, unassigned; (-)) [IV-673, (−)-N-(3-Hydroxy-2,2-dimethyl-1-phenylpropyl)-6,6-dimethyl-3-[1-(trimethylsilyl)cyclobutanecarboxamido]-4,6-dihydropyrrolo[3,4-c]pyrazole-5(1H)-carboxamide], the Ki in assay [2] is no more than 50 nM. The IC50 in assay [1] was no more than 500 nM.

Turning to `CC1(C)c2[nH]nc(NC(=O)C3([Si](C)(C)C)CCC3)c2CN1C(=O)C(CO)c1ccccc1` (centres unmarked) [IV-632, N-[5-(3-Hydroxy-2-phenylpropanoyl)-6,6-dimethyl-1,4,5,6-tetrahydropyrrolo[3,4-c]pyrazol-3-yl]-1-(trimethylsilyl)cyclobutanecarboxamide], the Ki in assay [2] is no more than 50 nM. Besides, the IC50 in assay [1] was no more than 500 nM.

Turning to `CCCO[C@@H](C(=O)N1Cc2c(NC(=O)C3([Si](C)(C)C)CCC3)n[nH]c2C1(C)C)c1ccccc1` [IV-1196, (R)—N-[6,6-Dimethyl-5-(2-phenyl-2-propoxyacetyl)-1,4,5,6-tetrahydropyrrolo[3,4-c]pyrazol-3-yl]-1-(trimethylsilyl)cyclobutanecarboxamide], in assay [2], the Ki was no more than 50 nM. The 50% inhibitory concentration (IC50) in assay [1] was no more than 500 nM.

`CC1(C)c2[nH]nc(NC(=O)C3([Si](C)(C)C)CCC3)c2CN1C(=O)[C@H](OC(F)(F)F)c1ccccc1` [IV-1184, (R)—N-{6,6-Dimethyl-5-[2-phenyl-2-(trifluoromethoxy)acetyl]-1,4,5,6-tetrahydropyrrolo[3,4-c]pyrazol-3-yl}-1-(trimethylsilyl)cyclobutanecarboxamide] came in with an IC50 in assay [1] of no more than 500 nM.

`CC1(C)c2[nH]nc(NC(=O)C3([Si](C)(C)C)CCC3)c2CN1C(=O)N[C@H](CC1(O)CC1)c1ccccc1` [IV-743, (R)—N-[2-(1-Hydroxycyclopropyl)-1-phenylethyl]-6,6-dimethyl-3-[1-(trimethylsilyl)cyclobutanecarboxamido]-4,6-dihydropyrrolo[3,4-c]pyrazole-5(1H)-carboxamide]: the inhibitory constant (Ki) in assay [2] is no more than 50 nM. This compound showed an IC50 in assay [1] of no more than 500 nM.

As for `CC(C)[C@@H](CO)NC(=O)N1Cc2c(NC(=O)C3([Si](C)(C)C)CCC3)n[nH]c2C1(C)C` [IV-475, (S)—N-(1-Hydroxy-3-methylbutan-2-yl)-6,6-dimethyl-3-[1-(trimethylsilyl)cyclobutanecarboxamido]-4,6-dihydropyrrolo[3,4-c]pyrazole-5(1H)-carboxamide], in assay [2], the inhibitory constant (Ki) is no more than 50 nM. Besides, the 50% inhibitory concentration (IC50) in assay [1] is no more than 500 nM.

For `CC[Si](C)(C)C1(C(=O)Nc2n[nH]c3c2CN(C(=O)N[C@H](CO)c2ccccc2)C3(C)C)CCC1` [IV-117, (S)-3-[1-(Ethyldimethylsilyl)cyclobutanecarboxamido]-N-(2-hydroxy-1-phenylethyl)-6,6-dimethyl-4,6-dihydropyrrolo[3,4-c]pyrazole-5(1H)-carboxamide], the inhibition constant Ki in assay [2] is no more than 50 nM. Also, in assay [1], the IC50 was no more than 500 nM.

On to `CO[C@@H](C(=O)N1Cc2c(NC(=O)C3([Si](C)(C)C)CCC3)n[nH]c2C1(C)C)c1ccccc1F` [IV-1383, (R)—N-{5-[2-(2-Fluorophenyl)-2-methoxyacetyl]-6,6-dimethyl-1,4,5,6-tetrahydropyrrolo[3,4-c]pyrazol-3-yl}-1-(trimethylsilyl)cyclobutanecarboxamide], for which the Ki in assay [2] is no more than 50 nM. This compound came in with a half-inhibitory concentration (IC50) in assay [1] of no more than 500 nM.

`CC(C)(O)C[C@@H](NC(=O)N1Cc2c(NC(=O)C3([Si](C)(C)C)CCC3)n[nH]c2C1(C)C)c1ccc(F)cc1` [IV-939, (R)—N-[1-(4-Fluorophenyl)-3-hydroxy-3-methylbutyl]-6,6-dimethyl-3-[1-(trimethylsilyl)cyclobutanecarboxamido]-4,6-dihydropyrrolo[3,4-c]pyrazole-5(1H)-carboxamide]: the inhibitory constant (Ki) in assay [2] was no more than 50 nM. The same compound displayed an IC50 in assay [1] of no more than 500 nM.

Regarding `C[C@@H](CO)NC(=O)N1Cc2c(NC(=O)C3([Si](C)(C)C)CCC3)n[nH]c2C1(C)C` [IV-455, (S)—N-(1-Hydroxypropan-2-yl)-6,6-dimethyl-3-[1-(trimethylsilyl)cyclobutanecarboxamido]-4,6-dihydropyrrolo[3,4-c]pyrazole-5(1H)-carboxamide], the Ki in assay [2] was no more than 50 nM.

Compound `CC1(C)c2[nH]nc(NC(=O)C3([Si](C)(C)C)CCC3)c2CN1C(=O)NC(c1ccccc1)C1(CO)CCC1` (centres unmarked) [IV-718, N-{[1-(Hydroxymethyl)cyclobutyl](phenyl)methyl}-6,6-dimethyl-3-[1-(trimethylsilyl)cyclobutanecarboxamido]-4,6-dihydropyrrolo[3,4-c]pyrazole-5(1H)-carboxamide] displayed an IC50 in assay [1] of no more than 500 nM.

With `CN(C(=O)N1Cc2c(NC(=O)C3([Si](C)(C)C)CCC3)n[nH]c2C1(C)C)[C@H](CO)c1ccccc1` [IV-119, (S)—N-(2-Hydroxy-1-phenylethyl)-N,6,6-trimethyl-3-[1-(trimethylsilyl)cyclobutanecarboxamido]-4,6-dihydropyrrolo[3,4-c]pyrazole-5(1H)-carboxamide], in assay [2], the Ki was no more than 50 nM. Also, the half-inhibitory concentration (IC50) in assay [1] was no more than 500 nM.

Take `CC1(C)c2[nH]nc(NC(=O)C3([Si](C)(C)C)CCC3)c2CN1C(=O)N[C@H](CO)C1CCCCC1` [IV-495, (S)—N-(1-Cyclohexyl-2-hydroxyethyl)-6,6-dimethyl-3-[1-(trimethylsilyl)cyclobutanecarboxamido]-4,6-dihydropyrrolo[3,4-c]pyrazole-5(1H)-carboxamide]: in assay [2], the inhibitory constant (Ki) is no more than 50 nM. The IC50 in assay [1] was no more than 500 nM.

For the compound `CC(C)(O)C[C@@H](NC(=O)N1Cc2c(NC(=O)C3([Si](C)(C)C)CCC3)n[nH]c2C1(C)C)c1cccc(F)c1` [IV-911, (R)—N-[1-(3-Fluorophenyl)-3-hydroxy-3-methylbutyl]-6,6-dimethyl-3-[1-(trimethylsilyl)cyclobutanecarboxamido]-4,6-dihydropyrrolo[3,4-c]pyrazole-5(1H)-carboxamide], in assay [2], the Ki was no more than 50 nM. This compound also came in with a half-inhibitory concentration (IC50) in assay [1] of no more than 500 nM.

Consider `COC(C(=O)N1Cc2c(NC(=O)C3([Si](C)(C)C)CCC3)n[nH]c2C1(C)C)c1cccs1` (centres unmarked) [IV-1546, N-{5-[2-Methoxy-2-(thiophen-2-yl)acetyl]-6,6-dimethyl-1,4,5,6-tetrahydropyrrolo[3,4-c]pyrazol-3-yl}-1-(trimethylsilyl)cyclobutanecarboxamide], for which the Ki in assay [2] is no more than 50 nM. In addition, in assay [1], the IC50 was no more than 500 nM.
